# Reference: US9505772B2, “Aromatic ring compound” (TAKEDA PHARMACEUTICAL COMPANY LIMITED, priority 2012, dated 2016)
# Columns and labels:
# human MCHR1 [1] = target: T1, human MCHR1 (Homo sapiens, UniProt Q99705); assay: Human MCH receptor 1 (MCHR1) binding inhibitory activity, binding assay with [125I]-MCH(4-19); details: test compound 0.1 μM, human MCHR1-expressing CHO cell membrane fraction, read-out: Binding inhibition rate % (0.1 μM)
# T1 construct: expressed in transfected cells; host or cells: CHO cell clone 57 (described in WO01/82925); membrane fraction
# T1 sequence (Q99705 whole entry): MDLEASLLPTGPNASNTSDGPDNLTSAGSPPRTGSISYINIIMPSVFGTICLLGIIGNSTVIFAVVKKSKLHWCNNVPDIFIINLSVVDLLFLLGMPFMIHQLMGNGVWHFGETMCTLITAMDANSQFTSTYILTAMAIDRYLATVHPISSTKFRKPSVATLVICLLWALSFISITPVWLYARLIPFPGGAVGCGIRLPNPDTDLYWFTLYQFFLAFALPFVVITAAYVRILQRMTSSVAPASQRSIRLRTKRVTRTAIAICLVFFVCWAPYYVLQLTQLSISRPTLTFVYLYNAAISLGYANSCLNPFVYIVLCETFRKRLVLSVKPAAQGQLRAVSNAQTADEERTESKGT
# Method: Determination of Human MCH Receptor 1 (MCHR1) Binding Inhibitory Activity of Test Compound Using Binding Assay
# 1. Preparation of Membrane Fraction
# Using human MCHR1(=SLC-1 receptor)-expressing CHO cell clone 57 described in WO01/82925, MCHR1-expressing CHO cellular membrane fractions were prepared by the following method.
# In phosphate buffered saline (pH 7.4) supplemented with 5 mM EDTA (ethylenediaminetetraacetic acid) were respectively suspended human MCHR1-expressing CHO cells (1×10^8 cells) and centrifuged. Homogenate buffer (10 mL, 10 mM NaHCO3, 5 mM EDTA, pH 7.5, 0.5 mM PMSF (phenylmethylsulfonyl fluoride), 20 mg/L leupeptin, 4 mg/L E-64, 1 mg/L pepstatin A) was added to the pellets of the cells and, using Polytron Homogenizer, the mixture was homogenated. The supernatant obtained after centrifugation at 400×g for 10 min was further centrifuged at 100,000×g for 1 hr to give precipitate of the membrane fraction. The precipitate were suspended in 2 mL of assay buffer [20 mM Tris-HCl (pH 7.5), 5 mM EDTA, 0.5 mM PMSF, 20 mg/L leupeptin, 4 mg/L E-64, 1 mg/L pepstatin A]. The membrane fractions were suspended in assay buffer to a protein concentration of 2 mg/mL, and after dispensing, preserved at −80° C. and used upon thawing each time when in use.
# The MCHR1 ligand binding inhibitory activity of the test compound was determined as follows.
# An MCHR1-expressing CHO cellular membrane fraction (173 μL) diluted with an assay buffer was dispensed to a 96 well polypropylene plate (3363, Corning). DMSO solution (2 μL), 33 μM cold MCH(1-19) diluted with DMSO solution (2 μL), or a test compound solution diluted with DMSO solution to various concentrations (2 μL) was added, and lastly, [^125I]-MCH(4-19) diluted with assay buffer (hereinafter, sometimes to be referred to as “hot MCH”, 25 μL) was added to each well. The mixture was reacted with stirring at room temperature for 1 hr, and the plate was set on FilterMate Harvester (PerkinElmer). Using a treating glass filter plate (GF/C, PerkinElmer) with polyethyleneimine, which had been previously set, the plate was suction-filtered and washed three times with washing buffer (50 mM Tris-HCl buffer pH 7.5). The glass filter plate was dried, MicroScinti0 (PerkinElmer) was added at 25 μL/well, and the resulting radioactivity was measured by TopCount liquid scintillation counter (PerkinElmer). The binding inhibition rate of the test compound was calculated by the following formula. Binding inhibition (%)=100−(radioactivity upon addition of test compound and hot MCH−radioactivity upon addition of cold MCH and hot MCH solution)/(radioactivity upon addition of DMSO solution and hot MCH−radioactivity upon addition of cold MCH and hot MCH solution)×100
# The binding inhibition rates (%) of test compounds (0.1 μM) as measured using human MCHR1-expressing CHO cell are shown in Table 2.
# human MCHR1 [2] = target: T1, human MCHR1; assay: MCH receptor 1 antagonistic activity, Ca2+ mobilization assay; type: cell-based; details: test compound 0.1 μM; human MCHR1-expressing CHO cells (clone #4); MCH(4-19) 2 nM; read-out: Inhibition rate % (0.1 μM)
# Method: Measurement of MCH Receptor 1 Antagonistic Activity of Test Compound Using Ca^2+ Mobilization Assay
# Using an expression vector plasmid introduced with human MCHR1 gene for expression in animal cells, human MCHR1 gene was introduced into CHO cells (CHO dhfr^−) by Lipofectamine LTX (Invitrogen). The cells were cultured in selection MEMα medium [445 mL of MEMα medium without nucleic acid and added with 5 mL of Penicillin-Streptomycin (Invitrogen) and 50 mL of dialyzed fetal bovine serum]. Colony 24 clones grown in the selection medium, which were human MCHR1 gene-expressing CHO cell candidates, were selected. […] In the following test, this human MCHR1-expressing CHO cell (clone #4) was used. An integrated dispensing function fluorometer (CellLux, PerkinElmer) was used for Ca^2+ mobilization assay. The CHO cells were sown in a 96 well plate (type 3904, Corning) with a black wall and clear well bottom at a density of 20000 cells/well, and cultured in an incubator for about 24 hr at 5% CO2, 37° C. The medium was removed, and the cells were washed with phosphate buffered saline (PBS). A Ca^2+ indicator dye reagent (DOJINDO LABORATORIES, Ca screening no-wash kit Fluo4) was added at 100 μL/well, and the dye was allowed to penetrate into the cell for 30 min in an incubator at 5% CO2, 37° C. The plate was set on a plate reader. First, a test compound solution diluted with an assay buffer [10 mM HEPES (pH 7.4), 1× assay buffer containing 0.1% BSA (DOJINDO LABORATORIES, attached to Ca screening no-wash kit Fluo4)] or DMSO solution was added at 50 μL/well, and then ligand MCH (4-19) peptide (final concentration 2 nM) diluted with assay buffer or DMSO was added at 50 μL/well, during which changes in intracellular fluorescence were measured at 2 second intervals. The antagonistic activity of the test compound was calculated by the following formula and shown as an inhibition rate (%) wherein the intracellular fluorescence activity resulting from the stimulation by the addition of ligand MCH (4-19) peptide was 100% and that of the well added with DMSO solution alone was 0%. inhibitory rate (%)=100−[fluorescence activity upon addition of test compound and MCH(4-19) peptide solution−fluorescence activity upon addition of DMSO solution only]/[fluorescence activity upon addition of DMSO solution and MCH(4-19) peptide solution−fluorescence activity upon addition of DMSO solution only]×100
# The inhibition rates (%) of test compounds (0.1 μM) as antagonist activity measured using human MCHR1-expressing CHO cells (clone #4) are shown in the following Table 3.
Structure (SMILES),inhibition at 0.1 µM (human MCHR1 [1]) [%],inhibition at 0.1 µM (human MCHR1 [2]) [%]
"COc1cc(-n2ccc3oc(-c4ccccc4F)cc3c2=O)ccc1OCC1(C#N)CC1 [Example 15, 1-((4-(2-(2-Fluorophenyl)-4-oxofuro[3,2-c]pyridin-5(4H)-yl)-2-methoxyphenoxy)methyl)cyclopropanecarbonitrile]",17,–
"Cc1cc(-n2ccc3oc(-c4ccc(Cl)cc4)cc3c2=O)ccc1OCC1(C#N)CC1 [Example 33, 1-((4-(2-(4-Chlorophenyl)-4-oxofuro[3,2-c]pyridin-5(4H)-yl)-2-methylphenoxy)methyl)cyclopropanecarbonitrile]",84,34
"COc1cc(-n2ccc3oc(-c4ccc(Cl)cc4)cc3c2=O)ccc1OCC1CCO1 (stereo not drawn) [Example 43, 2-(4-Chlorophenyl)-5-(3-methoxy-4-(oxetan-2-ylmethoxy)phenyl)furo[3,2-c]pyridin-4(5H)-one]",92,99
"COc1cc(-n2ccc3oc(-c4ccc(Cl)cc4)cc3c2=O)ccc1OCC(N)=O [Example 50, 2-(4-(2-(4-Chlorophenyl)-4-oxofuro[3,2-c]pyridin-5(4H)-yl)-2-methoxyphenoxy)acetamide]",85,–
"COc1ccc(-n2ccc3oc(-c4ccc(Cl)cc4)cc3c2=O)cc1OC [Example 2, 2-(4-Chlorophenyl)-5-(3,4-dimethoxyphenyl)furo[3,2-c]pyridin-4(5H)-one]",81,94
"COc1cc(-n2cnc3oc(-c4ccc(Cl)cc4)cc3c2=O)ccc1OCC1(C#N)CC1 [Example 6, 1-((4-(6-(4-Chlorophenyl)-4-oxofuro[2,3-d]pyrimidin-3(4H)-yl)-2-methoxyphenoxy)methyl)cyclopropanecarbonitrile]",82,37
"COc1cc(-n2ccc3oc(-c4ccc(Cl)cc4)cc3c2=O)ccc1OCC1CCCO1 (stereo not drawn) [Example 36, 2-(4-Chlorophenyl)-5-(3-methoxy-4-(tetrahydrofuran-2-ylmethoxy)phenyl)furo[3,2-c]pyridin-4(5H)-one]",95,78
"COC(=O)c1ccc(-n2ccc3oc(-c4ccc(Cl)cc4)cc3c2=O)cc1OC [Example 24, Methyl 4-(2-(4-chlorophenyl)-4-oxofuro[3,2-c]pyridin-5(4H)-yl)-2-methoxybenzoate]",47,–
"COc1cc(-n2ccc3oc(-c4ccc(Cl)cc4)cc3c2=O)ccc1OCC1CCOC1 (stereo not drawn) [Example 39, 2-(4-Chlorophenyl)-5-(3-methoxy-4-(tetrahydrofuran-3-ylmethoxy)phenyl)furo[3,2-c]pyridin-4(5H)-one]",96,84
"CCc1cc(-n2ccc3oc(-c4ccc(Cl)cc4)cc3c2=O)ccc1OCC1(C#N)CC1 [Example 47, 1-((4-(2-(4-Chlorophenyl)-4-oxofuro[3,2-c]pyridin-5(4H)-yl)-2-ethylphenoxy)methyl)cyclopropanecarbonitrile]",74,–
"CCC1(COc2ccc(-n3ccc4oc(-c5ccc(Cl)cc5)cc4c3=O)cc2OC)COC1 [Example 48, 2-(4-Chlorophenyl)-5-(4-((3-ethyloxetan-3-yl)methoxy)-3-methoxyphenyl)furo[3,2-c]pyridin-4(5H)-one]",71,–
"COc1cc(-n2ccc3oc(-c4ccc(Cl)cc4)cc3c2=O)ccc1OCC1(C)COC1 [Example 41, 2-(4-Chlorophenyl)-5-(3-methoxy-4-((3-methyloxetan-3-yl)methoxy)phenyl)furo[3,2-c]pyridin-4(5H)-one]",97,92
"COc1cc(-n2ccc3oc(-c4ccc(Cl)cc4)cc3c2=O)ccc1OCC(C)(C)O [Example 7, 2-(4-Chlorophenyl)-5-(4-(2-hydroxy-2-methylpropoxy)-3-methoxyphenyl)furo[3,2-c]pyridin-4(5H)-one]",97,106
"COc1cc(-n2ccc3oc(-c4ccc(Cl)cc4)cc3c2=O)ccc1OCC1(C#N)CC1 [Example 5, 1-((4-(2-(4-Chlorophenyl)-4-oxofuro[3,2-c]pyridin-5(4H)-yl)-2-methoxyphenoxy)methyl)cyclopropanecarbonitrile]",97,100
"N#CC1(COc2ccc(-n3ccc4oc(-c5ccc(Cl)cc5)cc4c3=O)cc2Cl)CC1 [Example 8, 1-((2-Chloro-4-(2-(4-chlorophenyl)-4-oxofuro[3,2-c]pyridin-5(4H)-yl)phenoxy)methyl)cyclopropanecarbonitrile]",76,–
"COc1cc(-n2ccc3oc(-c4ccccc4)cc3c2=O)ccc1OCC1(C#N)CC1 [Example 20, 1-((2-Methoxy-4-(4-oxo-2-phenylfuro[3,2-c]pyridin-5(4H)-yl)phenoxy)methyl)cyclopropanecarbonitrile]",58,–
"COc1cc(-n2ccc3oc(-c4ccc(Cl)cc4)cc3c2=O)ccc1OCCCC(N)=O [Example 51, 4-(4-(2-(4-Chlorophenyl)-4-oxofuro[3,2-c]pyridin-5(4H)-yl)-2-methoxyphenoxy)butanamide]",90,–
"COc1cc(-n2ccc3oc(-c4ccc(F)cn4)cc3c2=O)ccc1OCC1(C#N)CC1 [Example 21, 1-((4-(2-(5-Fluoropyridin-2-yl)-4-oxofuro[3,2-c]pyridin-5(4H)-yl)-2-methoxyphenoxy)methyl)cyclopropanecarbonitrile]",42,–
"COc1cc(-n2ccc3oc(-c4ccc(Cl)cc4)cc3c2=O)ccc1C(=O)NCC1CC1 [Example 45, 4-(2-(4-Chlorophenyl)-4-oxofuro[3,2-c]pyridin-5(4H)-yl)-N-(cyclopropylmethyl)-2-methoxybenzamide]",74,–
"COc1cc(-n2ccc3oc(-c4ccc(Cl)cc4)cc3c2=O)ccc1O [Example 30, 2-(4-Chlorophenyl)-5-(4-hydroxy-3-methoxyphenyl)furo[3,2-c]pyridin-4(5H)-one]",66,–
"COc1cc(-n2ccc3oc(-c4ccc(C(F)(F)F)cc4)cc3c2=O)ccc1OCC1(C#N)CC1 [Example 27, 1-((2-Methoxy-4-(4-oxo-2-(4-(trifluoromethyl)phenyl)furo[3,2-c]pyridin-5(4H)-yl)phenoxy)methyl)cyclopropanecarbonitrile]",60,–
